Results: patent US12459925B2, “Sulphonyl urea derivatives as NLRP3 inflammasome modulators” (priority 2017, dated 2025)
Like-named read-outs stand apart in the source and are kept apart here.

System: IL-1β release upon NLRP3 activation in peripheral blood mononuclear cells (PBMC)
Assay: PBMC IC50 determination assay (IL-1β release, Protocol A ELISA / Protocol B HTRF)
Type: cell-based
Conditions: Homo sapiens
Procedure: The compounds of the present disclosure were tested for their inhibitory activity against IL-1β release upon NLRP3 activation in peripheral blood mononuclear cells (PBMC).
Isolated cells were seeded into the wells of a 96-well plate and incubated for 3 h with lipopolysaccharide (LPS). Following medium exchange, the compounds of the present disclosure were added (a single compound per well) and the cells were incubated for 30 min. Next, the cells were stimulated either with ATP (5 mM) or nigericin (10 μM) for 1 h and the cell culture media from the wells were collected for further analysis.
The release of IL1-β into the media was determined by a quantitative detection of IL-1β in the media using an IL-1β enzyme-linked immunosorbent assay (ELISA) Ready-SET-Go!, eBioscience cat. […] Subsequently, plates were blocked with blocking buffer for 1 h at room temperature (rt) and after washing with a buffer (PBS with 0.05% Tween-20) incubated with protein standard and culture media. […] Plates were washed and incubated with HRP-streptavidin for 30 min at rt and washed again. The signal was developed after addition of 3,3′,5,5′-tetramethylbenzidine-peroxidase (TMB) until colour appeared and the reaction was stopped by 2 M H2SO4. A microplate spectrophotometer (BioTek) was used to detect signals with 450 nm. The detection range of IL-1β ELISA was 2-150 ng/ml.
Isolated cells were seeded into the wells (280,000 cells/well) of a 96-well plate and incubated for 3 h with lipopolysaccharide (LPS, 1 μg/ml diluted 1000× from a 1 mg/ml stock solution). The compounds of the present disclosure were added (a single compound per well) and the cells were incubated for 30 min. Next, the cells were stimulated with ATP (5 mM final concentration diluted 20× from a 100 mM stock solution) for 1 h and the cell culture media from the wells were collected for further analysis.
The release of IL-1β into the media was determined by quantitative detection of IL-1β in the media using HTRF®, CisBio cat. No. 62HIL1BPEH. Briefly, cell culture supernatant were dispensed directly into the assay plate containing antibodies labelled with the HTRF® donor and acceptor. A microplate spectrophotometer (BMG) was used to detect signals at 655 nm and 620 nm. The detection range of IL-1β HTRF® was 39-6500 pg/ml.

[1] = PBMC primed with LPS 3 h, compound 30 min, stimulated with ATP (5 mM) or nigericin (10 μM) 1 h, IL-1β in media, read-out: Average PBMC IC50
[2] = PBMC, read-out: Average PBMC IC50 (μM)

SMILES: Cn1cc(N(C2CCOCC2)S(=O)(=O)NC(=O)Nc2c3c(cc4c2CCC4)CCC3)cn1 [Compound 1]
- IC50 [1]: < 1 µM

SMILES: CN1CCC(N(c2cnn(C)c2)S(=O)(=O)NC(=O)Nc2c3c(cc4c2CCC4)CCC3)CC1 [Compound 2]
- IC50 [1]: < 1 µM

SMILES: CN1CCC(CN(c2cnn(C)c2)S(=O)(=O)NC(=O)Nc2c3c(cc4c2CCC4)CCC3)CC1 [Compound 3]
- IC50 [1]: 1 to 3 µM

SMILES: CC(C)n1cc(N(C2CCOCC2)S(=O)(=O)NC(=O)Nc2c3c(cc4c2CCC4)CCC3)cn1 [Compound 4]
- IC50 [1]: < 1 µM

SMILES: CC(C)n1cc(N(C2CCN(C)CC2)S(=O)(=O)NC(=O)Nc2c3c(cc4c2CCC4)CCC3)cn1 [Compound 5]
- IC50 [1]: < 1 µM

SMILES: CCn1cc(N(C2CCOCC2)S(=O)(=O)NC(=O)Nc2c3c(cc4c2CCC4)CCC3)cn1 [Compound 6]
- IC50 [1]: < 1 µM

SMILES: CCn1cc(N(C2CCN(C)CC2)S(=O)(=O)NC(=O)Nc2c3c(cc4c2CCC4)CCC3)cn1 [Compound 7]
- IC50 [1]: < 1 µM

SMILES: Cn1cc(N(C2CCOC2)S(=O)(=O)NC(=O)Nc2c3c(cc4c2CCC4)CCC3)cn1 (stereo not drawn) [Compound 8]
- IC50 [1]: < 1 µM

SMILES: Cn1ccc(N(C2CCOCC2)S(=O)(=O)NC(=O)Nc2c3c(cc4c2CCC4)CCC3)n1 [Compound 9]
- IC50 [1]: < 1 µM

SMILES: Cc1c(N(C2CCOCC2)S(=O)(=O)NC(=O)Nc2c3c(cc4c2CCC4)CCC3)cnn1C [Compound 10]
- IC50 [1]: < 1 µM

SMILES: Cc1nn(C)c(C)c1N(C1CCOCC1)S(=O)(=O)NC(=O)Nc1c2c(cc3c1CCC3)CCC2 [Compound 11]
- IC50 [1]: < 1 µM

SMILES: Cc1cc(N(C2CCOCC2)S(=O)(=O)NC(=O)Nc2c3c(cc4c2CCC4)CCC3)no1 [Compound 12]
- IC50 [1]: 3 to 10 µM

SMILES: O=C(Nc1c2c(cc3c1CCC3)CCC2)NS(=O)(=O)N(c1cnoc1)C1CCOCC1 [Compound 13]
- IC50 [1]: < 1 µM

SMILES: Cc1c(N(C2CCN(C)CC2)S(=O)(=O)NC(=O)Nc2c3c(cc4c2CCC4)CCC3)cnn1C [Compound 14]
- IC50 [1]: < 1 µM

SMILES: Cc1nn(C)c(C)c1N(C1CCN(C)CC1)S(=O)(=O)NC(=O)Nc1c2c(cc3c1CCC3)CCC2 [Compound 15]
- IC50 [1]: 1 to 3 µM

SMILES: Cn1cc(N(CC2COC2)S(=O)(=O)NC(=O)Nc2c3c(cc4c2CCC4)CCC3)cn1 [Compound 16]
- IC50 [1]: < 1 µM

SMILES: O=C(Nc1c2c(cc3c1CCC3)CCC2)NS(=O)(=O)N(c1cncnc1)C1CCOCC1 [Compound 17]
- IC50 [1]: < 1 µM

SMILES: Cc1cc(N(C2CCOCC2)S(=O)(=O)NC(=O)Nc2c3c(cc4c2CCC4)CCC3)on1 [Compound 18]
- IC50 [1]: < 1 µM

SMILES: Cn1cnc(N(C2CCOCC2)S(=O)(=O)NC(=O)Nc2c3c(cc4c2CCC4)CCC3)n1 [Compound 19]
- IC50 [1]: 3 to 10 µM

SMILES: CN1CCC(N(c2ccn(C)n2)S(=O)(=O)NC(=O)Nc2c3c(cc4c2CCC4)CCC3)CC1 [Compound 20]
- IC50 [1]: < 1 µM

SMILES: Cn1cnc(N(C2CCOCC2)S(=O)(=O)NC(=O)Nc2c3c(cc4c2CCC4)CCC3)c1 [Compound 21]
- IC50 [1]: 3 to 10 µM

SMILES: Cn1cc(N(C2CCCOC2)S(=O)(=O)NC(=O)Nc2c3c(cc4c2CCC4)CCC3)cn1 (stereo not drawn) [Compound 22]
- IC50 [1]: < 1 µM

SMILES: CN1CCCC(N(c2cnn(C)c2)S(=O)(=O)NC(=O)Nc2c3c(cc4c2CCC4)CCC3)C1 (stereo not drawn) [Compound 23]
- IC50 [1]: < 1 µM

SMILES: CN1CCC(N(c2cnn(C)c2)S(=O)(=O)NC(=O)Nc2c3c(cc4c2CCC4)CCC3)C1 (stereo not drawn) [Compound 24]
- IC50 [1]: < 1 µM

SMILES: O=C(Nc1c2c(cc3c1CCC3)CCC2)NS(=O)(=O)N(c1cnn(C(F)F)c1)C1CCOCC1 [Compound 25]
- IC50 [1]: < 1 µM

SMILES: O=C(Nc1c2c(cc3c1CCC3)CCC2)NS(=O)(=O)N(c1cnn(CC(F)(F)F)c1)C1CCOCC1 [Compound 26]
- IC50 [1]: < 1 µM

SMILES: COCn1cc(N(C2CCOCC2)S(=O)(=O)NC(=O)Nc2c3c(cc4c2CCC4)CCC3)cn1 [Compound 27]
- IC50 [1]: < 1 µM

SMILES: COCn1cc(N(C2CCN(C)CC2)S(=O)(=O)NC(=O)Nc2c3c(cc4c2CCC4)CCC3)cn1 [Compound 28]
- IC50 [1]: < 1 µM

SMILES: COCCn1cc(N(C2CCOCC2)S(=O)(=O)NC(=O)Nc2c3c(cc4c2CCC4)CCC3)cn1 [Compound 29]
- IC50 [1]: < 1 µM

SMILES: N#CCn1cc(N(C2CCOCC2)S(=O)(=O)NC(=O)Nc2c3c(cc4c2CCC4)CCC3)cn1 [Compound 30]
- IC50 [1]: < 1 µM

SMILES: CN1CCC(N(c2cnn(CC#N)c2)S(=O)(=O)NC(=O)Nc2c3c(cc4c2CCC4)CCC3)CC1 [Compound 31]
- IC50 [1]: < 1 µM

SMILES: CCN1CCC(N(c2cnn(C)c2)S(=O)(=O)NC(=O)Nc2c3c(cc4c2CCC4)CCC3)CC1 [Compound 32]
- IC50 [1]: < 1 µM

SMILES: CC(C)N1CCC(N(c2cnn(C)c2)S(=O)(=O)NC(=O)Nc2c3c(cc4c2CCC4)CCC3)CC1 [Compound 33]
- IC50 [1]: 1 to 3 µM

SMILES: CN1CCC(N(c2cnn(C(F)F)c2)S(=O)(=O)NC(=O)Nc2c3c(cc4c2CCC4)CCC3)CC1 [Compound 34]
- IC50 [1]: < 1 µM

SMILES: O=C(Nc1c2c(cc3c1CCC3)CCC2)NS(=O)(=O)N(c1cnn(CC(F)F)c1)C1CCOCC1 [Compound 35]
- IC50 [1]: < 1 µM

SMILES: CN1CCC(N(c2cnn(CC(F)F)c2)S(=O)(=O)NC(=O)Nc2c3c(cc4c2CCC4)CCC3)CC1 [Compound 36]
- IC50 [1]: < 1 µM

SMILES: CN1CCC(N(c2cnn(CC(F)(F)F)c2)S(=O)(=O)NC(=O)Nc2c3c(cc4c2CCC4)CCC3)CC1 [Compound 37]
- IC50 [1]: < 1 µM

SMILES: COCCn1cc(N(C2CCN(C)CC2)S(=O)(=O)NC(=O)Nc2c3c(cc4c2CCC4)CCC3)cn1 [Compound 38]
- IC50 [1]: < 1 µM

SMILES: CN1CCC(N(c2cnn(C3CC3)c2)S(=O)(=O)NC(=O)Nc2c3c(cc4c2CCC4)CCC3)CC1 [Compound 39]
- IC50 [1]: < 1 µM

SMILES: CN1CCC(N(c2cn[nH]c2)S(=O)(=O)NC(=O)Nc2c3c(cc4c2CCC4)CCC3)CC1 [Compound 40]
- IC50 [2]: 1 to 3 µM

SMILES: O=C(Nc1c2c(cc3c1CCC3)CCC2)NS(=O)(=O)N(c1cnn(C2COC2)c1)C1CCOCC1 [Compound 41]
- IC50 [1]: < 1 µM

SMILES: CN1CCC(N(c2cnn(C3COC3)c2)S(=O)(=O)NC(=O)Nc2c3c(cc4c2CCC4)CCC3)CC1 [Compound 42]
- IC50 [1]: < 1 µM

SMILES: CN(C)CCn1cc(N(C2CCOCC2)S(=O)(=O)NC(=O)Nc2c3c(cc4c2CCC4)CCC3)cn1 [Compound 43]
- IC50 [1]: < 1 µM

SMILES: CN1CCC(N(c2cnn(C3CCC3)c2)S(=O)(=O)NC(=O)Nc2c3c(cc4c2CCC4)CCC3)CC1 [Compound 44]
- IC50 [1]: < 1 µM

SMILES: Cn1cc(N(C2CCN(CC(F)F)CC2)S(=O)(=O)NC(=O)Nc2c3c(cc4c2CCC4)CCC3)cn1 [Compound 45]
- IC50 [2]: 1 to 3 µM

SMILES: Cn1cc(N(CCN2CCOCC2)S(=O)(=O)NC(=O)Nc2c3c(cc4c2CCC4)CCC3)cn1 [Compound 46]
- IC50 [1]: < 1 µM

SMILES: CN1CCC(N(c2cnn(C)c2)S(=O)(=O)NC(=O)Nc2c3c(cc4c2CCC4)CCC3)CC1=O (stereo not drawn) [Compound 47]
- IC50 [1]: 1 to 3 µM

SMILES: O=C(Nc1c2c(cc3c1CCC3)CCC2)NS(=O)(=O)N(c1cn[nH]c1)C1CCOCC1 [Compound 48]
- IC50 [2]: < 1 µM

SMILES: CC(C)c1cc(NC(=O)NS(=O)(=O)N(c2cnn(C)c2)C2CCN(C)CC2)cc(C(C)C)c1 [Compound 49]
- IC50 [1]: < 1 µM

SMILES: CCN1CCC(N(c2cnn(C)c2)S(=O)(=O)NC(=O)Nc2c3c(cc4c2CCC4)CCC3)C1 (stereo not drawn) [Compound 50]
- IC50 [1]: < 1 µM

SMILES: CC(C)N1CCC(N(c2cnn(C)c2)S(=O)(=O)NC(=O)Nc2c3c(cc4c2CCC4)CCC3)C1 (stereo not drawn) [Compound 51]
- IC50 [1]: < 1 µM

SMILES: CC(C)N1CCCC(N(c2cnn(C)c2)S(=O)(=O)NC(=O)Nc2c3c(cc4c2CCC4)CCC3)C1 (stereo not drawn) [Compound 52]
- IC50 [1]: < 1 µM

SMILES: CCc1cc(CC)cc(NC(=O)NS(=O)(=O)N(c2cnn(C)c2)C2CCN(C)CC2)c1 [Compound 53]
- IC50 [1]: < 1 µM

SMILES: Cn1cc(N(C2CN3CCC2CC3)S(=O)(=O)NC(=O)Nc2c3c(cc4c2CCC4)CCC3)cn1 (stereo not drawn) [Compound 54]
- IC50 [2]: < 1 µM

SMILES: CC(C)n1cc(N(C2CCCN(C)C2)S(=O)(=O)NC(=O)Nc2c3c(cc4c2CCC4)CCC3)cn1 (stereo not drawn) [Compound 55]
- IC50 [1]: < 1 µM

SMILES: CC(C)n1cc(N(C2CCN(C)C2)S(=O)(=O)NC(=O)Nc2c3c(cc4c2CCC4)CCC3)cn1 (stereo not drawn) [Compound 56]
- IC50 [1]: < 1 µM

SMILES: CN1CCC(CN(c2cnn(C)c2)S(=O)(=O)NC(=O)Nc2c3c(cc4c2CCC4)CCC3)C1 (stereo not drawn) [Compound 57]
- IC50 [1]: < 1 µM

SMILES: CN1CC2(CC(N(c3cnn(C)c3)S(=O)(=O)NC(=O)Nc3c4c(cc5c3CCC5)CCC4)C2)C1 [Compound 58]
- IC50 [1]: 10 to 50 µM

SMILES: CN1CC(N(c2cnn(C)c2)S(=O)(=O)NC(=O)Nc2c3c(cc4c2CCC4)CCC3)C1 [Compound 59]
- IC50 [1]: < 1 µM

SMILES: CN1CCC(N(c2cnn(C)c2)S(=O)(=O)NC(=O)Nc2c3c(cc4c2CCC4)CCC3)CC1C(F)(F)F (stereo not drawn) [Compound 60]
- IC50 [1]: < 1 µM

SMILES: Cn1cc(N(C2CCN(CC(F)(F)F)C2)S(=O)(=O)NC(=O)Nc2c3c(cc4c2CCC4)CCC3)cn1 (stereo not drawn) [Compound 61]
- IC50 [1]: < 1 µM

SMILES: CCN1CCCC(N(c2cnn(C)c2)S(=O)(=O)NC(=O)Nc2c3c(cc4c2CCC4)CCC3)C1 (stereo not drawn) [Compound 62]
- IC50 [1]: < 1 µM

SMILES: Cn1cc(N(CCN2CCC2)S(=O)(=O)NC(=O)Nc2c3c(cc4c2CCC4)CCC3)cn1 [Compound 63]
- IC50 [1]: < 1 µM
